# Measurements reported in patent US20240287102A1, “NOVEL CRYSTALLINE FORMS OF [(1R)-2-(1-BENZOFURAN-3-YL)-1-{[(1S,2R,4R)-7-OXABICYCLO[2.2.1]HEPTAN-2-YL]FORMAMIDO}ETHYL]BORONIC ACID, ADDUCTS THEREOF, AND PROCESSES TO OBTAIN” (Merck Patent GmbH, priority 2021, published 2024).
# Where two headings read alike, the source gives them in different places.
# Key:
# [1] = Thermodynamic solubility (24 h) at 37° C.; format: physicochemical; settings: for solubility thermodynamic at 24 h: 37 °C, thermodynamic from solid
# Experimental: Approximately 10-20 mg of 1-(4-{[6-Amino-5-(4-phenoxy-phenyl)-pyrimidin-4-ylamino]-methyl}-4-fluoro-piperidin-1-yl)-propenone was weighed into a 4 mL glass vial. 1 mL of SGF medium (simulated gastric fluid, pH 1.2), FaSSIF medium (fasted state intestinal medium, pH 6.5), or USP Phosphate buffer pH 7.4 was added and the suspension was shaken for 24 h at 450 rpm at 37° C. After 1 hour, 6 hours and after 24 hours, the vials were checked for the presence of undissolved compound and the pH was measured. If necessary, the pH was adjusted after 1 hour and 6 hours. The solid liquid separation was carried out using 1 mL syringe and 0.2 μm syringe filter. Clear filtrate was analyzed by HPlC after suitable dilution to measure the amount of API dissolved.
# [2] = Water Vapour Sorption isotherm (25° C., DVS-Intrinsic); format: physicochemical; settings: for water uptake levels: 25° C.
# Experimental: DSC scan of trimeric form A1 was acquired on a Mettler-Toledo DSC 1 with a heating rate of 5 K/min, using nitrogen purge gas at 50 mL/min. TGA scan of trimeric form A1 was acquired on a Mettler-Toledo TGA 851 with a heating rate of 5 K/min, using nitrogen purge gas at 50 mL/min. […] Eur. Criteria (section 5.11.). Water Vapour Sorption isotherm was acquired on a DVS-Intrinsic system from SMS. […] Dissolution level of trimeric form A1 in Simulated Gastric Fluid [SGF, pH 1.2] at 37° C. was determined to be approximately 2.4 mg/mL after 2 h (see example 12).
# DSC scan of hydrate form NF2 was acquired on a Mettler-Toledo DSC 1 with a heating rate of 5 K/min, using nitrogen purge gas at 50 mL/min. TGA scan of hydrate form NF2 was acquired on a Mettler-Toledo TGA 851 with a heating rate of 5 K/min, using nitrogen purge gas at 50 mL/min. […] Eur. Criteria (section 5.11.). Water Vapour Sorption isotherm was acquired on a DVS-Intrinsic system from SMS.
# In the DSC, a phase transition to trimeric form A1 occurred above 150° C., and the trimeric A1 form has a melting peak onset greater than 220° C. […] DSC scan of the anhydrous form NF9 was acquired on a Mettler-Toledo DSC 1 with a heating rate of 5 K/min, using nitrogen purge gas at 50 mL/min. TGA scan of anhydrous form NF9 was acquired on a Mettler-Toledo TGA 851 with a heating rate of 5 K/min, using nitrogen purge gas at 50 mL/min. […] Eur. Criteria (section 5.11.). […] Water Vapour Sorption isotherm was acquired on a DVS-Intrinsic system from SMS.
# This is followed by an exothermic event in the DSC, assigned to a phase transition to trimeric form A1. Finally, the melting of trimeric form A1 with melting peak onset at temperatures greater than 220° C. […] DSC scan of the hydrate of trimeric boronic acid adduct form NF7 was acquired on a Mettler-Toledo DSC 1 with a heating rate of 5 K/min, using nitrogen purge gas at 50 mL/min. TGA scan of the hydrate of trimeric boronic acid adduct form NF7 was acquired on a Mettler-Toledo TGA 851 with a heating rate of 5 K/min, using nitrogen purge gas at 50 mL/min. […] Eur. Criteria (section 5.11.). […]
# [3] = biological target: LMP7 subunit of the immunoproteasome (Homo sapiens, UniProt P20618+P28062); settings: Singh et al, Br. J. Hematology 152(2): 155-163; cited from earlier work
"Thermodynamic solubility FaSSIF pH 6.5 ([1]; Fasted-State Simulated Intestinal Fluid pH 6.5, 37° C., 24 h)","Thermodynamic solubility SGF pH 1.2 ([1]; Simulated Gastric Fluid pH 1.2, 37° C., 24 h)","solubility thermodynamic at 24 h ([1]; fasted-state simulated intestinal fluid (FaSSIF), pH 6.5, fassif, Fasted-State Simulated Intestinal Fluid pH 6.5, 37° C., 24 h, read-out: Thermodynamic solubility FaSSIF pH 6.5)",solubility in biorelevant media (in words) ([1]; listed as Hydrate form NF2),solubility in biorelevant media (in words) ([1]; listed as hydrate form NF2),"solubility thermodynamic at 24 h ([1]; simulated gastric fluid (SGF), pH 1.2, simulated gastric fluid, Simulated Gastric Fluid pH 1.2, 37° C., 24 h, read-out: Thermodynamic solubility SGF pH 1.2)",hygroscopicity classification according to Ph. Eur. Criteria (section 5.11.) [2],water uptake levels ([2]; relative humidity range 0-80% rh),water uptake levels ([2]; relative humidity range 90-98% rh),SMILES,selectivity as inhibitor of the LMP7 subunit [3]
0.7 mg/mL,0.7 mg/mL,~700 µg/mL,highly soluble in biorelevant media,good solubility in biorelevant media,~700 µg/mL,slightly hygroscopic,≤ 1 % m/m,≤ 5 % m/m,O=C(N[C@@H](Cc1coc2ccccc12)B(O)O)[C@@H]1C[C@H]2CC[C@@H]1O2 [Form NF2],
,,,,,,,,,CC1=C(C(=O)N[C@H](C)C(=O)N[C@@H](Cc2c[nH]c3ccccc23)C(=O)N[C@@H](Cc2ccccc2)C(=O)[C@@]2(C)CO2)Cc2ccccc21 [PR-924],100 fold
